From patent US11673869B2, “4-oxazolidinone antimicrobial agents” (NORTH CAROLINA STATE UNIVERSITY, priority 2016, dated 2023) come the findings set out here.

One assay concerns S. aureus. Put plainly: Broth microdilution MIC determination, S. aureus. It counts as cell-based, Staphylococcus aureus. The settings on record: minimum inhibitory concentration, recorded after 16 h, unit assumed. For orientation: Broth dilution looks for growth in wells or tubes with falling amounts of substance.
The subject of assay [1] is MRSA (ATCC 33591) methicillin-resistant Staphylococcus aureus. The assay is described as follows: Broth microdilution MIC determination, MRSA. It is filed as cell-based. The conditions noted are these: minimum inhibitory concentration, MRSA ATCC 33591, Mueller-Hinton broth, 37° C., recorded after 16 h; unit assumed. Here is the method: (§1) Broth microdilution protocol for minimum inhibition concentration (MIC) determination. Fresh Mueller-Hinton broth (MHB) ˜3 ml, was inoculated (5×10^5 CFU mL^−1) with MRSA (ATCC 33591) methicillin-resistant Staphylococcus aureus. The resulting bacterial suspension was aliquoted (1 mL) into culture tubes and test compound (10 mM DMSO stock solution) was added to reach the final concentration of the interest. Bacteria not treated with the antimicrobial compound served as the control. Rows 2-12 of a 96-well microtiter plate were filled with remaining bacterial subcultures. The samples containing test compound were aliquoted (200 μL) into the first row wells of the microtiter plate (2 wells per compound). Row 1 wells were mixed 6-8 times and 100 μL was transferred down to row 2. Row 2 wells were mixed 6-8 times, followed by a 100 μL transfer from row 2 down to row 3. The rest of the rows of the plate were serially diluted in similar fashion. The plate was covered with sealing tape for 96-well plates (ThermoFisher) and incubated under stationary conditions at 37° C. A duplicate of the plate was prepared.
(§2) MIC values for vancomycin, linezolid, and tetracycline are included in Table 1 for purposes of comparison.

The subject of another assay is A. baumannii. Put plainly: Broth microdilution MIC determination, A. baumannii. It is filed as cell-based, Acinetobacter baumannii. The conditions noted are these: minimum inhibitory concentration, recorded after 16 h, unit assumed. The protocol:
[The procedure below names another organism; the source lists this organism under the same test.] as §1, §2

In brackets after ≈: the same amount, converted by molar mass.

`CCCCCCC/C(C)=C/C(=O)/C=C1\NC(=O)[C@H](CCCC)O1` [Compound 1, (S)-Lipoxazolidinone A] gave an MIC S. aureus against S. aureus of 1 µg/mL (≈ 3.11 µM). In assay [1], this compound registered an MIC MRSA of 0.5 µg/mL (≈ 1.56 µM). Further, the MIC A. baumannii against A. baumannii was > 50 µg/mL.
With `CCCCCCC/C(C)=C/C(=O)/C=C1\NC(=O)[C@@H](CCCC)O1` [Compound 2, (R)-Lipoxazolidinone A], in the assay with S. aureus, the MIC S. aureus was 4 µg/mL (≈ 12.4 µM). For the same compound, in assay [1], the MIC MRSA came out at 1 µg/mL (≈ 3.11 µM).
Compound `CCCCCCC/C=C/C(=O)/C=C1\NC(=O)[C@H](CCCC)O1` [Compound 3, (S,E)-5-Butyl-2-((E)-2-oxoundec-3-en-1-ylidene)oxazolidin-4-one] came in with an MIC S. aureus in the assay on S. aureus of 0.5 µg/mL (≈ 1.63 µM). For the same compound, the MIC MRSA in assay [1] is 0.125 µg/mL (≈ 0.407 µM). Further, the MIC A. baumannii against A. baumannii was > 50 µg/mL.
Compound `CCCCCCCCCC(=O)/C=C1\NC(=O)[C@H](CCCC)O1` [Compound 4, (S,E)-5-Butyl-2-(2-oxoundecylidene)oxazolidin-4-one] gave an MIC S. aureus against S. aureus of 2 µg/mL (≈ 6.46 µM). This compound displayed an MIC MRSA in assay [1] of 0.25 µg/mL (≈ 0.808 µM).
In the assay with S. aureus, `CCCC[C@@H]1O/C(=C/C(=O)CCC)NC1=O` [Compound 5, (S,E)-5-Butyl-2-(2-oxopentylidene)oxazolidin-4-one] registered an MIC S. aureus of 16 µg/mL (≈ 71 µM). Moreover, in assay [1], the MIC MRSA stood at 16 µg/mL (≈ 71 µM). Also, the MIC A. baumannii in the assay with A. baumannii was > 50 µg/mL.
Regarding `CCCC[C@@H]1O/C(=C/C(C)=O)NC1=O` [Compound 6, (S,E)-5-Butyl-2-(2-oxopropylidene)oxazolidin-4-one], the MIC S. aureus with S. aureus worked out at 128 µg/mL (≈ 649 µM). Also, in assay [1], the MIC MRSA is > 128 µg/mL.
On the same counts, the results for `CCCCCCCCCCCCCCCC(=O)/C=C1\NC(=O)[C@H](CCCC)O1` [Compound 7, (S,E)-5-Butyl-2-(2-oxoheptadecylidene)oxazolidin-4-one] are 128 µg/mL (≈ 325 µM) and 16 µg/mL (≈ 40.6 µM).
As to `CCCCCCCCCC(=O)/C=C1\NC(=S)[C@H](CCCC)O1` [Compound 8, (S,E)-1-(5-butyl-4-thioxooxazolidin-2-ylidene)undecan-2-one], the MIC S. aureus against S. aureus worked out at 128 µg/mL (≈ 393 µM). For the same compound, in assay [1], the MIC MRSA stood at 64 µg/mL (≈ 197 µM).
Consider `CCCCCCCCCC(=O)/C=C1\NC(=O)[C@H](CC(C)C)O1` [Compound 9, (S,E)-5-isobutyl-2-(2-oxoundecylidene)oxazolidin-4-one], for which, in the assay with S. aureus, the MIC S. aureus worked out at 0.5 µg/mL (≈ 1.62 µM). Moreover, the MIC MRSA in assay [1] was 0.0675 µg/mL (≈ 0.218 µM). Further, the MIC A. baumannii against A. baumannii was > 128 µg/mL.
On the same counts, the results for `CCCCCCCCCC(=O)/C=C1\NC(=O)[C@H]([C@@H](C)CC)O1` [Compound 10, (S,E)-5-((S)-sec-butyl)-2-(2-oxoundecylidene)oxazolidin-4-one] are 0.5 µg/mL (≈ 1.62 µM), 0.0675 µg/mL (≈ 0.218 µM) and > 128 µg/mL.
The compound `CCCCCCCCCC(=O)/C=C1\NC(=O)[C@H](C(C)C)O1` [Compound 11, (S,E)-5-isopropyl-2-(2-oxoundecylidene)oxazolidin-4-one] returned an MIC S. aureus against S. aureus of 0.5 µg/mL (≈ 1.69 µM). In assay [1], this compound gave an MIC MRSA of 0.0338 µg/mL (≈ 0.114 µM). For the same compound, the MIC A. baumannii in the assay with A. baumannii is > 64 µg/mL.
`CCCCCCCCCC(=O)/C=C1\NC(=O)[C@H](Cc2ccccc2)O1` [Compound 12, (S,E)-5-benzyl-2-(2-oxoundecylidene)oxazolidin-4-one] had an MIC S. aureus in the assay with S. aureus of 4 µg/mL (≈ 11.6 µM). In assay [1], the MIC MRSA came out at 0.5 µg/mL (≈ 1.46 µM).
`CCCCCCCCCC(=O)/C=C1\NC(=O)CO1` [Compound 13, (E)-2-(2-Oxoundecylidene)oxazolidin-4-one] showed an MIC S. aureus against S. aureus of 4 µg/mL (≈ 15.8 µM). The MIC MRSA in assay [1] came out at 2 µg/mL (≈ 7.89 µM).
The corresponding values for `CCCCCCCCCC(=O)/C=C1\NC(=O)[C@H](C)O1` [Compound 14, (S,E)-5-Methyl-2-(2-oxoundecylidene)oxazolidin-4-one] are 1 µg/mL (≈ 3.74 µM) and 0.8 µg/mL (≈ 2.99 µM).
`CCCCCCCCCC(=O)/C=C1\NC(=O)[C@H](c2ccccc2)O1` [Compound 15, (S,E)-2-(2-oxoundecylidene)-5-phenyloxazolidin-4-one] showed an MIC S. aureus in the assay with S. aureus of 2 µg/mL (≈ 6.07 µM). Also, the MIC MRSA in assay [1] worked out at 1 µg/mL (≈ 3.04 µM). Also, the MIC A. baumannii in the assay on A. baumannii was > 128 µg/mL.
In turn, `CC(C)[C@@H]1O/C(=C/C(=O)Cc2ccccc2)NC1=O` [Compound 16, (S,E)-5-isopropyl-2-(2-oxo-3-phenylpropylidene)oxazolidin-4-one] gave an MIC MRSA in assay [1] of 2 µg/mL (≈ 7.71 µM).
Same read-out and setting: to `CC(C)[C@@H]1O/C(=C/C(=O)C(c2ccccc2)c2ccccc2)NC1=O` [Compound 17, (S,E)-5-isopropyl-2-(2-oxo-3,3-diphenylpropylidene)oxazolidin-4-one] belongs 0.5 µg/mL (≈ 1.49 µM); to `COC(=O)CCCC(=O)/C=C1\NC(=O)[C@H](C(C)C)O1` [Compound 18, methyl (S,E)-6-(5-isopropyl-4-oxooxazolidin-2-ylidene)-5-oxohexanoate], 32 µg/mL (≈ 119 µM); to `C#CCCCCC(=O)/C=C1\NC(=O)[C@H](C(C)C)O1` [Compound 19, (S,E)-5-isopropyl-2-(2-oxooct-7-yn-1-ylidene)oxazolidin-4-one], 16 µg/mL (≈ 64.2 µM).
With `CC(=O)/C=C1\NC(=O)[C@H](C)O1` [Compound 20, (S,E)-5-methyl-2-(2-oxopropylidene)oxazolidin-4-one], the MIC S. aureus against S. aureus is > 128 µg/mL. For the same compound, in assay [1], the MIC MRSA was > 128 µg/mL.
In the assay with S. aureus, `CCCCCCCCCC(=O)/C=C1\NC(=O)[C@H](C(C)(C)C)O1` [Compound 21, (S,E)-5-(tert-butyl)-2-(2-oxoundecylidene)oxazolidin-4-one] yielded an MIC S. aureus of 0.5 µg/mL (≈ 1.62 µM). In addition, the MIC MRSA in assay [1] is 0.0675 µg/mL (≈ 0.218 µM).
On to `CCCCCCCCCC(=O)/C=C1\NC(=O)[C@H](CC)O1` [Compound 22, (S,E)-5-ethyl-2-(2-oxoundecylidene)oxazolidin-4-one], for which the MIC S. aureus in the assay with S. aureus worked out at 2 µg/mL (≈ 7.11 µM). In assay [1], the MIC MRSA was 1 µg/mL (≈ 3.55 µM).
The corresponding values for `CC(C)[C@@H]1O/C(=C/C(=O)Cc2ccc(-c3ccccc3)cc2)NC1=O` [Compound 23, (S,E)-2-(3-([1,1′-biphenyl]-4-yl)-2-oxopropylidene)-5-isopropyloxazolidin-4-one] are 0.25 µg/mL (≈ 0.745 µM) and 0.125 µg/mL (≈ 0.373 µM).
On the same counts, the results for `CC(C)[C@@H]1O/C(=C/C(=O)Cc2ccc(Br)cc2)NC1=O` [Compound 24, (S,E)-2-(3-(4-bromophenyl)-2-oxopropylidene)-5-isopropyloxazolidin-4-one] are 1 µg/mL (≈ 2.96 µM) and 0.5 µg/mL (≈ 1.48 µM).
The compound `CC(=O)NC[C@H]1CN(c2ccc(N3CCOCC3)c(F)c2)C(=O)O1` [linezolid, reference compound] gave an MIC S. aureus against S. aureus of 0.5 µg/mL (≈ 1.48 µM). Also, the MIC MRSA in assay [1] came out at 1 µg/mL (≈ 2.96 µM). In the assay on A. baumannii, the MIC A. baumannii was > 100 µg/mL.
In turn, `CN(C)[C@@H]1C(O)=C(C(N)=O)C(=O)[C@@]2(O)C(O)=C3C(=O)c4c(O)cccc4[C@@](C)(O)[C@H]3C[C@@H]12` [tetracycline, reference compound] displayed an MIC S. aureus in the assay on S. aureus of 0.25 µg/mL (≈ 0.563 µM). Moreover, the MIC A. baumannii in the assay with A. baumannii was 2 µg/mL (≈ 4.5 µM).
Consider `CN[C@H](CC(C)C)C(=O)N[C@H]1C(=O)N[C@@H](CC(N)=O)C(=O)N[C@H]2C(=O)N[C@H]3C(=O)N[C@H](C(=O)N[C@H](C(=O)O)c4cc(O)cc(O)c4-c4cc3ccc4O)[C@H](O)c3ccc(c(Cl)c3)Oc3cc2cc(c3O[C@@H]2O[C@H](CO)[C@@H](O)[C@H](O)[C@H]2O[C@H]2C[C@](C)(N)[C@H](O)[C@H](C)O2)Oc2ccc(cc2Cl)[C@H]1O` [vancomycin, reference compound], for which the MIC S. aureus in the assay with S. aureus came out at 1 µg/mL (≈ 0.69 µM). In addition, the MIC MRSA in assay [1] was 1 µg/mL (≈ 0.69 µM). In addition, the MIC A. baumannii with A. baumannii is > 100 µg/mL.
